Here are results for 5 compounds from patent publication US20220249534A1, “METHOD OF TREATING CANCER WITH NUCLEOTIDE THERAPEUTICS” (Massachusetts Institute of Technology, priority 2021, published 2022).

The test system of test [1] is A549 cells. Briefly: Proliferation rate of A549 cells with added single nucleoside/base. Conditions: for IC50: Homo sapiens. Type of test: cell-based, human. On the procedure: (§1) This effect was dose-titratable over a 0.1 mM to 2.0 mM range, with increasing concentrations of multiple single nucleotides completely preventing cell proliferation.
(§2) In Table 1, the approximate concentration of each nucleotide that when added slows the proliferation of the indicated cells by half is shown.
(§3) All adherent and human leukemia cell lines were cultured in DMEM or RPMI supplemented with 10% heat inactivated fetal bovine serum at 37° C. with 5% CO2. The Lys-GFP-ER-HoxA9 63.3 cells were cultured in RPMI supplemented with 10% fetal bovine serum, stem cell factor, and beta-estradiol as described previously (Sykes et al., (2016), Cell. 167(1): 171-186.e15). All cell lines regularly tested negative for mycoplasma.
(§4) To assess proliferation, the number of cells seeded for each cell line allowed for exponential growth over the course of the assay. To assess effects of nucleotide treatment, cells were washed three times with PBS and 4 mL of treatment media was added one day after plating cells. The following formula was used to calculate proliferation rate:
(§5) Doublings per day=[Log2(Final day 4 cell count/Initial day 0 cell count)]/4 days

Another test relates to 143B cells. Description: Proliferation rate of 143B cells with added single nucleoside/base. The format is cell-based. To be noted: Homo sapiens, read-out: Added nucleoside/base concentration that slows proliferation by half. The method, then:
as §1, §2, §3, §4, §5

The next test has as its system U2OS cells. Briefly: Proliferation rate of U2OS cells with added single nucleoside/base. The format is cell-based. Conditions: Homo sapiens, read-out: Added nucleoside/base concentration that slows proliferation by half. On the procedure:
as §1, §2, §3, §4, §5

A further test concerns H1299 cells. Description: Proliferation rate of H1299 cells with added single nucleoside/base. Type of test: cell-based. To be noted: Homo sapiens. On the procedure:
as §1, §2, §3, §4, §5

The test system of the next test is MDA-MB-468 cells. Briefly: Proliferation rate of MDA-MB-468 cells with added single nucleoside/base. Conditions: Homo sapiens. The format is cell-based. On the procedure: as §1, §2, §3, §4, §5
The subject of another test is A2780 cells. Briefly: Proliferation rate of A2780 cells with added single nucleoside/base. Type of test: cell-based. To be noted: Homo sapiens. On the procedure: as §1, §2, §3, §4, §5
The test system of a further test is U937 cells. Description: Differentiation of U937 cells by flow cytometry. The format is cell-based, human. Conditions: 10^-3 to 10^-7 M, FIG. 4C. On the procedure:
(§6) That exogenous nucleotides can direct cancer cells to undergo differentiation was determined as follows. Thymidine was added at concentrations ranging from 10^−3 to 10^−7 M to 63.3 cells (FIG. 4A), THP1 cells (FIG. 4B) and U937 cells (FIG. 4C). Cell differentiation was monitored by CD11b+/CD16+ expression, and by CD11b+ total expression.
as §3
(§7) The Lys-GFP-ER-HoxA9 cells or human leukemia cell lines were grown in round-bottom tissue-culture treated plates. Following a 4-day incubation with nucleotides, cells were incubated with antibodies, washed, incubated with FACS buffer containing DAPI, and analyzed by flow cytometry. Viability was assessed by forward and side scatter as well as by DAPI exclusion. For the Lys-GFP-ER-HoxA9 63.3 cells, differentiation was assessed by GFP and staining with an anti-CD11b-APC antibody (final concentration of 1:400; Clone M1/70, Biolegend). […]
(In general: Flow cytometry measures light scatter and fluorescence of single cells or particles in a stream.)

The next test has as its system 63.3 cells. Description: Differentiation of Lys-GFP-ER-HoxA9 63.3 cells by flow cytometry. Type of test: cell-based. Conditions: 10^-3 to 10^-7 M, FIG. 4A. On the procedure:
as §6, §3, §7

The next test has as its system THP1 cells. Briefly: Differentiation of THP1 cells by flow cytometry. Type of test: cell-based, human. To be noted: 10^-3 to 10^-7 M, FIG. 4B. The method, then:
as §6, §3, §7

The subject of test [2] is A549 cells. Description: LCMS analysis of intracellular nucleotide levels in A549 cells. Type of test: cell-based, human. The method, then: Where indicated, cells were incubated in media with 4 mM ^15N-amide-glutamine and/or 200 μM ^13C-guanine or ^13C-adenine for 24 hours prior to LCMS Analysis of metabolites. For assessment of metabolites, cells were washed three times with PBS prior to extracting polar metabolites from cells: plates were placed on ice, cells were washed with ice-cold blood bank saline, and 500 μl of ice-cold 80% methanol in water with 250 nM ^13C/^15N labeled amino acid standards (MSK-A2-1.2: Cambridge Isotope Laboratories, Inc.) was added to each well. Cells were scraped, each sample was vortexed for 10 minutes at 4° C., and then centrifuged at maximum speed for 10 minutes at 4° C. Samples were dried under nitrogen gas and resuspended in 25 μl of a 50/50 acetonitrile/water mixture. Metabolites were measured using a Dionex UltiMate 3000 ultra-high performance liquid chromatography system connected to a Q Exactive benchtop Orbitrap mass spectrometer, equipped with an Ion Max source and a HESI II probe (Thermo Fisher Scientific). […]
Metabolites were monitored in full-scan, polarity-switching, mode. […] Relative quantitation of metabolites was performed with XCalibur QuanBrowser 2.2 (Thermo Fisher Scientific) using a 5 ppm mass tolerance and referencing an in-house retention time library of chemical standards. […]

The test system of the next test is Chk1 and Chk2. Briefly: Replication stress signaling: phosphorylation of ATR/ATM targets Chk1 and Chk2. Type of test: cell-based. Conditions: stronger signaling at higher concentrations. The source says: To determine if nucleotide imbalance causes replication stress in a cancer cell, targets of the ATR and ATM kinases were examined after the addition of a nucleotide to change the internal nucleotide ratio. The ATR and ATM kinases are components of the cellular response to DNA damage, and sense single-stranded DNA and DNA double-strand breaks, respectively. The respective targets of ATR and ATM, Chk1 and Chk2, are major effectors of the DNA damage response. […] The appearance of p-Chk1 occurred first between 12 hours and 24 hours of guanine treatment, followed by the appearance of p-Chk2 between 48 hours and 72 hours. Induction of the replication stress response was reversed by addition of adenine together with guanine. A similar induction of ATR and ATM signaling occurred with any excess nucleotide supplementation that impaired S phase progression, but not with leucine deprivation, consistent with impaired DNA replication. Inhibiting total purine or pyrimidine synthesis induced phosphorylation of Chk1 and Chk2 but to a lesser extent than Guanosine treatment.

Test [3] can be described thus: Comet tail assay of DNA damage. Type of test: cell-based. Conditions: 24 hours; small fraction of treated cells. From the text: The cancer cell is contacted with that amount of purine, purine precursor, purine analog, pyrimidine, pyrimidine precursor, and/or pyrimidine which, once entering the cell, changes the cell's internal baseline purine:pyrimidine ratio and induces replication stress in the cell. The induction of replication stress can be measured, in any way known in the art, e.g., with the Comet assay which measures DNA damage. In this assay, cells are mixed in low melting point agarose on a microscope slide and are lysed with a detergent, e.g., 1% N-lauryl sarcosine, 0.5% Triton X-100, DMSO, and high salt, e.g., 2.5 M NaCl, 0.1 M EDTA and 10 mM Tris, to form nucleoids containing supercoiled loops of DNA that are linked to the nuclear matrix. After electrophoresis at high pH structures can be observed resembling comets, visualized by fluorescence microscopy. The intensity of the comet tail relative to the head is proportional to the number of breaks in the DNA. Comets can be scored with dedicated software such as, but not limited to, CaspLab software or OpenComet software.

Where [4] appears, read: 143B cells, approximate concentration.
The mark [5] stands for this setting: U2OS cells, approximate concentration.
Where [6] appears, read: NCI-H1299, H1299 cells, approximate concentration, read-out: Added nucleoside/base concentration that slows proliferation by half.
[7] abbreviates: MDA-MB-468 cells, approximate concentration, read-out: Added nucleoside/base concentration that slows proliferation by half.
Where [8] appears, read: A2780 cells, approximate concentration, read-out: Added nucleoside/base concentration that slows proliferation by half.
[9] abbreviates: A549 cells, approximate concentration, read-out: Added nucleoside/base concentration that slows proliferation by half.

Like-named read-outs stand apart in the source and are kept apart here.

On to `Nc1ccn([C@H]2C[C@H](O)[C@@H](CO)O2)c(=O)n1` [Deoxycytidine], for which, in the test with A549 cells [1] (A549 cells, FIG. 1B, higher concentrations), the Effect on proliferation entry is on record as “blocked proliferation”.
Consider `Nc1ncnc2c1ncn2[C@H]1C[C@H](O)[C@@H](CO)O1` [dA, deoxyadenosine], for which the IC50 in the test with 143B cells (setting [4]) came to 600 µM; with U2OS cells (setting [5]) it was 600 µM; in the test on H1299 cells (setting [6]) it was 800 µM; in the test on MDA-MB-468 cells (setting [7]), 225 µM; in the test with A2780 cells (setting [8]) it was 300 µM; in the test with A549 cells [1] (setting [9]) it was 1200 µM.
Regarding `Nc1ncnc2c1ncn2[C@@H]1O[C@H](CO)[C@@H](O)[C@H]1O` [A, adenosine], the IC50 in the test on 143B cells (setting [4]) is 1000 µM; in the test on U2OS cells (setting [5]), 950 µM; in the test on H1299 cells (setting [6]), 1100 µM; in the test with MDA-MB-468 cells (setting [7]), 800 µM; in the test with A2780 cells (setting [8]) it was 1000 µM; in the test on A549 cells [1] (setting [9]), 2100 µM.
Turning to `Cc1cn([C@H]2C[C@H](O)[C@@H](CO)O2)c(=O)[nH]c1=O` [T, thymidine], the “Cell differentiation (CD11b+/CD16+ and CD11b+ total expression)” value in the test with U937 cells and in the test with THP1 cells was “induced cell differentiation in a concentration dependent manner” in each case. In addition, the “Cell differentiation (CD11b+ markers)” value with 63.3 cells is reported as “induced cell differentiation in a concentration dependent manner”. In addition, the IC50 is 500 µM in the test with U2OS cells (setting [5]); 700 µM in the test on H1299 cells (setting [6]); 150 µM in the test with MDA-MB-468 cells (setting [7]); 300 µM in the test with A2780 cells (setting [8]); 500 µM with A549 cells [1] (setting [9]).
As to `Nc1nc2nc[nH]c2c(=O)[nH]1` [G, guanine], the IC50 was determined as 120 µM in the test with 143B cells (143B); 250 µM in the test with U2OS cells (U2OS); 200 µM with H1299 cells (NCI-H1299, read-out: Added nucleoside/base concentration that slows proliferation by half); 150 µM in the test on MDA-MB-468 cells (MDA-MB-468, read-out: Added nucleoside/base concentration that slows proliferation by half); 100 µM in the test on A2780 cells (A2780, read-out: Added nucleoside/base concentration that slows proliferation by half); 80 µM in the test on A549 cells [1] (A549, read-out: Added nucleoside/base concentration that slows proliferation by half). The “Intracellular pools of guanylate nucleotides (GTP/GDP/GMP)” value with A549 cells [2] (FIGS. 2A and 3A-3B) is on record as “dramatically increased”. In the test with A549 cells [2] (FIGS. 2B and 3C-3D), the “Intracellular levels of adenylate nucleotides (ATP/ADP/AMP)” value is “decreased”. Further, the “Phosphorylation of Chk1 and Chk2 (replication stress response)” value in the test with Chk1 and Chk2 is given as “robust phosphorylation”. For the same compound, the “DNA damage by comet tail assay” value in test [3] is on record as “minor increases in DNA damage”.
